Assay results taken from PMC5218480 (PLoS ONE, 2017).

System: MV-4-11 cells
Assay: Gene expression microarray analysis (Affymetrix PrimeView) and GSEA
Format: cell-based, human
Design: RFU PODN (11730768_x_at) / Fold change /veh PODN (11730768_x_at) / RFU LINC00158 (11744669_a_at) / Fold change /veh LINC00158 (11744669_a_at) / RFU DUSP10 (11751237_a_at) / Fold change /veh DUSP10 (11751237_a_at) / RFU ID3 (11757404_x_at) / Fold change /veh ID3 (11757404_x_at) / RFU PLEKHG5 (11737974_s_at) / Fold change /veh PLEKHG5 (11737974_s_at) / RFU LRRC4B (11730491_at) / Fold change /veh LRRC4B (11730491_at) / RFU GIMAP4 (11747438_a_at) / Fold change /veh GIMAP4 (11747438_a_at) / RFU KRT8 (11758183_x_at) / Fold change /veh KRT8 (11758183_x_at) / RFU CNN1 (11734310_a_at) / Fold change /veh CNN1 (11734310_a_at) / RFU VPS37D (11726825_at) / Fold change /veh VPS37D (11726825_at) / RFU C10orf10 (11716522_x_at) / Fold change /veh C10orf10 (11716522_x_at) / RFU KIR2DL2 /// KIR2DL4 /// KIR2DL5A /// KIR2DL5B /// KIR2DS1 /// KIR2DS2 /// KIR2DS3 /// KIR2DS4 /// KIR3DL3 /// KIR3DL3 /// KIR3DS1 (11738374_at) / Fold change /veh KIR2DL2 /// KIR2DL4 /// KIR2DL5A /// KIR2DL5B /// KIR2DS1 /// KIR2DS2 /// KIR2DS3 /// KIR2DS4 /// KIR3DL3 /// KIR3DL3 /// KIR3DS1 (11738374_at) / RFU C1QL1 (11718748_at) / Fold change /veh C1QL1 (11718748_at) / RFU TMPRSS4 (11747572_a_at) / Fold change /veh TMPRSS4 (11747572_a_at) / RFU HAMP (11756126_x_at) / Fold change /veh HAMP (11756126_x_at) / RFU RNFT2 (11725882_a_at) / Fold change /veh RNFT2 (11725882_a_at) / RFU NR4A2 (11747474_a_at) / Fold change /veh NR4A2 (11747474_a_at) / RFU ABCC12 (11746883_a_at) / Fold change /veh ABCC12 (11746883_a_at) / RFU TMEM136 (11760407_x_at) / Fold change /veh TMEM136 (11760407_x_at) / RFU CLDN22 /// WWC2 (11732394_at) / Fold change /veh CLDN22 /// WWC2 (11732394_at) / RFU HLA-DPB1 (11760878_x_at) / Fold change /veh HLA-DPB1 (11760878_x_at) / RFU SPINT1 (11716480_a_at) / Fold change /veh SPINT1 (11716480_a_at) / RFU GAP43 (11754022_s_at) / Fold change /veh GAP43 (11754022_s_at) / RFU A4GNT (11735810_at) / Fold change /veh A4GNT (11735810_at) / RFU PRB3 (11715151_x_at) / Fold change /veh PRB3 (11715151_x_at) / RFU TUBB4B (11761932_at) / Fold change /veh TUBB4B (11761932_at) / RFU CAPN14 (11732068_a_at) / Fold change /veh CAPN14 (11732068_a_at) / RFU TMCC2 (11721928_a_at) / Fold change /veh TMCC2 (11721928_a_at) / RFU IRGQ (11745062_a_at) / Fold change /veh IRGQ (11745062_a_at) / RFU FAM174B (11720279_a_at) / Fold change /veh FAM174B (11720279_a_at) / RFU TMPRSS4 (11748680_a_at) / Fold change /veh TMPRSS4 (11748680_a_at) / RFU FAM212B (11763350_a_at) / Fold change /veh FAM212B (11763350_a_at) / RFU PLEKHG5 (11743358_a_at) / Fold change /veh PLEKHG5 (11743358_a_at) / RFU ZSCAN30 (11745921_a_at) / Fold change /veh ZSCAN30 (11745921_a_at) / RFU CMKLR1 (11741424_a_at) / Fold change /veh CMKLR1 (11741424_a_at) / RFU LOC101060620 /// MAPK8IP1 (11723275_at) / Fold change /veh LOC101060620 /// MAPK8IP1 (11723275_at) / RFU SPTSSB (11747773_x_at) / Fold change /veh SPTSSB (11747773_x_at) / RFU PRSS12 (11739890_at) / Fold change /veh PRSS12 (11739890_at) / RFU BIN1 (11741810_x_at) / Fold change /veh BIN1 (11741810_x_at) / RFU WNT11 (11732464_a_at) / Fold change /veh WNT11 (11732464_a_at) / RFU C10orf10 (11716521_a_at) / Fold change /veh C10orf10 (11716521_a_at) / RFU C5orf56 (11738089_at) / Fold change /veh C5orf56 (11738089_at) / RFU CYB561 (11721691_x_at) / Fold change /veh CYB561 (11721691_x_at) / RFU ANKRD19P (11752326_a_at) / Fold change /veh ANKRD19P (11752326_a_at) / RFU OR2T12 /// OR2T33 /// OR2T8 (11738714_s_at) / Fold change /veh OR2T12 /// OR2T33 /// OR2T8 (11738714_s_at) / RFU VCAN (11748164_a_at) / Fold change /veh VCAN (11748164_a_at) / RFU JSRP1 (11732532_at) / Fold change /veh JSRP1 (11732532_at) / RFU KRTAP10-11 (11738290_x_at) / Fold change /veh KRTAP10-11 (11738290_x_at) / RFU MYO3A (11730013_a_at) / Fold change /veh MYO3A (11730013_a_at) / RFU EBF3 (11725865_a_at) / Fold change /veh EBF3 (11725865_a_at) / RFU CAMK2N1 (11719241_x_at) / Fold change /veh CAMK2N1 (11719241_x_at) / RFU C5orf56 (11738088_a_at) / Fold change /veh C5orf56 (11738088_a_at) / RFU OLFML3 (11715873_a_at) / Fold change /veh OLFML3 (11715873_a_at) / RFU LOC100653217 /// NTM (11731650_a_at) / Fold change /veh LOC100653217 /// NTM (11731650_a_at) / RFU MAPK11 (11762145_a_at) / Fold change /veh MAPK11 (11762145_a_at) / RFU FIZ1 (11724087_x_at) / Fold change /veh FIZ1 (11724087_x_at) / RFU OASL (11726364_x_at) / Fold change /veh OASL (11726364_x_at) / RFU SOX15 (11748057_x_at) / Fold change /veh SOX15 (11748057_x_at) / RFU CD79A (11719716_a_at) / Fold change /veh CD79A (11719716_a_at) / RFU HIST1H1D (11736915_at) / Fold change /veh HIST1H1D (11736915_at) / RFU CASKIN2 (11723855_a_at) / Fold change /veh CASKIN2 (11723855_a_at) / RFU LOC730098 (11760151_x_at) / Fold change /veh LOC730098 (11760151_x_at) / RFU OR4N2 (11742367_at) / Fold change /veh OR4N2 (11742367_at) / RFU PRRT2 (11749266_a_at) / Fold change /veh PRRT2 (11749266_a_at) / RFU SNX32 (11753110_a_at) / Fold change /veh SNX32 (11753110_a_at) / RFU CDHR5 (11726645_a_at) / Fold change /veh CDHR5 (11726645_a_at) / RFU RCAN1 (11760418_a_at) / Fold change /veh RCAN1 (11760418_a_at) / RFU FAM167A (11723789_a_at) / Fold change /veh FAM167A (11723789_a_at) / RFU FAM26E (11764081_at) / Fold change /veh FAM26E (11764081_at) / RFU ISYNA1 (11749810_s_at) / Fold change /veh ISYNA1 (11749810_s_at) / RFU ACY1 (11761880_at) / Fold change /veh ACY1 (11761880_at) / RFU 11764098_at / Fold change /veh 11764098_at / RFU SAMD14 (11745864_x_at) / Fold change /veh SAMD14 (11745864_x_at) / RFU NPB (11741838_a_at) / Fold change /veh NPB (11741838_a_at) / RFU TMPRSS6 (11731388_a_at) / Fold change /veh TMPRSS6 (11731388_a_at) / RFU KRTAP10-2 (11738614_at) / Fold change /veh KRTAP10-2 (11738614_at) / RFU ARHGAP8 /// PRR5-ARHGAP8 (11727945_x_at) / Fold change /veh ARHGAP8 /// PRR5-ARHGAP8 (11727945_x_at) / RFU KRTAP5-7 /// NADSYN1 (11734609_at) / Fold change /veh KRTAP5-7 /// NADSYN1 (11734609_at) / RFU RASL12 (11751679_a_at) / Fold change /veh RASL12 (11751679_a_at) / RFU CDKN2B (11736163_a_at) / Fold change /veh CDKN2B (11736163_a_at) / RFU PRF1 (11729649_at) / Fold change /veh PRF1 (11729649_at) / RFU, ZNF638 /// ZNF638-IT1 / Fold change vs veh, ZNF638 /// ZNF638-IT1 / RFU, PANK3 / Fold change vs veh, PANK3 / RFU, SH3YL1 / Fold change vs veh, SH3YL1 / RFU, ZEB2 / Fold change vs veh, ZEB2 / RFU, NRIP1 / Fold change vs veh, NRIP1 / RFU, PTTG1IP / Fold change vs veh, PTTG1IP / RFU, CAPN2 / Fold change vs veh, CAPN2 / RFU, MED14 / Fold change vs veh, MED14 / RFU, SNORA58 / Fold change vs veh, SNORA58 / RFU, C1orf63 / Fold change vs veh, C1orf63 / RFU, LRRFIP1 / Fold change vs veh, LRRFIP1 / RFU, NDUFAF7 / Fold change vs veh, NDUFAF7 / RFU, SLC12A2 / Fold change vs veh, SLC12A2 / RFU, IBTK / Fold change vs veh, IBTK / RFU, ESF1 / Fold change vs veh, ESF1 / Fold change vs veh, TMEM50B / RFU, TAOK1 / Fold change vs veh, TAOK1 / RFU, ACBD3 / Fold change vs veh, ACBD3 / RFU, TMA16 / Fold change vs veh, TMA16 / RFU, RWDD3 / Fold change vs veh, RWDD3 / RFU, BCAT1 / Fold change vs veh, BCAT1 / RFU, EDEM3 / Fold change vs veh, EDEM3 / RFU, TMEM33 / Fold change vs veh, TMEM33 / RFU, WDR75 / Fold change vs veh, WDR75 / RFU, AHCTF1 / Fold change vs veh, AHCTF1 / RFU, TFRC / Fold change vs veh, TFRC / RFU, ZDHHC17 / Fold change vs veh, ZDHHC17 / RFU, NOM1 / Fold change vs veh, NOM1 / RFU, ARL8B / Fold change vs veh, ARL8B / RFU, ZBTB11 / Fold change vs veh, ZBTB11 / RFU, TAMM41 / Fold change vs veh, TAMM41 / RFU, KIAA1704 /// LOC100996395 / Fold change vs veh, KIAA1704 /// LOC100996395 / RFU, ING1 / Fold change vs veh, ING1 / RFU, TRMT61B / Fold change vs veh, TRMT61B / RFU, FUBP3 / Fold change vs veh, FUBP3 / RFU, TP53 / Fold change vs veh, TP53 / RFU, TNKS2 / Fold change vs veh, TNKS2 / RFU, ZFP14 / Fold change vs veh, ZFP14 / RFU, ACTR2 / Fold change vs veh, ACTR2 / RFU, PPP3R1 / Fold change vs veh, PPP3R1 / RFU, PIK3R1 / Fold change vs veh, PIK3R1 / RFU, HNRNPA1 / Fold change vs veh, HNRNPA1 / RFU, RNF170 / Fold change vs veh, RNF170 / RFU, ZNF28 / Fold change vs veh, ZNF28 / RFU, RNGTT / Fold change vs veh, RNGTT / RFU, OGT / Fold change vs veh, OGT / RFU, BRD1 / Fold change vs veh, BRD1 / RFU, MARS / Fold change vs veh, MARS / RFU, ZNF655 / Fold change vs veh, ZNF655 / RFU, FAHD1 / Fold change vs veh, FAHD1 / RFU, BDP1 / Fold change vs veh, BDP1 / RFU, LRRCC1 / Fold change vs veh, LRRCC1 / RFU, ARID1A / Fold change vs veh, ARID1A / RFU, ZNF146 / Fold change vs veh, ZNF146 / RFU, ZNF330 / Fold change vs veh, ZNF330 / RFU, GPN3 / Fold change vs veh, GPN3 / RFU, C9orf123 / Fold change vs veh, C9orf123 / RFU, N4BP2L2 / Fold change vs veh, N4BP2L2 / RFU, ARFIP1 / Fold change vs veh, ARFIP1 / RFU, FAM179B / Fold change vs veh, FAM179B / RFU, BCL10 / Fold change vs veh, BCL10 / RFU, UHRF1BP1L / Fold change vs veh, UHRF1BP1L / RFU, BET1 / Fold change vs veh, BET1 / RFU, CNOT2 / Fold change vs veh, CNOT2 / RFU, ZNF268 / Fold change vs veh, ZNF268 / Fold change vs veh, ZNF507 / RFU, DGCR2 / Fold change vs veh, DGCR2 / RFU, WDSUB1 / Fold change vs veh, WDSUB1 / Fold change vs veh, HSP90B1 /// MIR3652 / RFU, ADSS / Fold change vs veh, ADSS / RFU, GK / Fold change vs veh, GK / RFU, ZNF148 / Fold change vs veh, ZNF148 / RFU, TAF9 / Fold change vs veh, TAF9 / RFU, SLC1A5 / Fold change vs veh, SLC1A5 / RFU, SLMO2 / Fold change vs veh, SLMO2 / RFU, ABCC4 / Fold change vs veh, ABCC4 / RFU, LOC101060439 /// RAP1B / Fold change vs veh, LOC101060439 /// RAP1B / RFU, RFX7 / Fold change vs veh, RFX7 / RFU, GTPBP10 / Fold change vs veh, GTPBP10 / RFU, CNEP1R1 / Fold change vs veh, CNEP1R1 / RFU, BIVM-ERCC5 /// ERCC5 / Fold change vs veh, BIVM-ERCC5 /// ERCC5 / RFU, ILF3 / Fold change vs veh, ILF3 / RFU 11762660_at / Fold change /veh 11762660_at / RFU VCAN (11757783_s_at) / Fold change /veh VCAN (11757783_s_at) / RFU DDX43 (11728927_at) / Fold change /veh DDX43 (11728927_at) / RFU KRT8 (11758188_x_at) / Fold change /veh KRT8 (11758188_x_at) / RFU NKD1 (11759106_at) / Fold change /veh NKD1 (11759106_at) / RFU SRD5A1 (11742802_a_at) / Fold change /veh SRD5A1 (11742802_a_at) / RFU TPSAB1 /// TPSB2 (11721975_s_at) / Fold change /veh TPSAB1 /// TPSB2 (11721975_s_at) / RFU GSTM3 (11746129_a_at) / Fold change /veh GSTM3 (11746129_a_at) / RFU IL23R (11737362_x_at) / Fold change /veh IL23R (11737362_x_at) / RFU TMEM51 (11727254_a_at) / Fold change /veh TMEM51 (11727254_a_at) / RFU PIWIL2 (11732686_x_at) / Fold change /veh PIWIL2 (11732686_x_at) / RFU ORM1 (11744905_x_at) / Fold change /veh ORM1 (11744905_x_at) / RFU CCDC152 (11743942_at) / Fold change /veh CCDC152 (11743942_at) / RFU ECM1 (11717891_a_at) / Fold change /veh ECM1 (11717891_a_at) / RFU IL23R (11748794_a_at) / Fold change /veh IL23R (11748794_a_at) / RFU TNFAIP8L3 (11732012_x_at) / Fold change /veh TNFAIP8L3 (11732012_x_at) / RFU MBOAT4 (11741988_at) / Fold change /veh MBOAT4 (11741988_at) / RFU 11764193_at / Fold change /veh 11764193_at / RFU TMEM53 (11763286_at) / Fold change /veh TMEM53 (11763286_at) / RFU MAGEB2 (11727129_at) / Fold change /veh MAGEB2 (11727129_at) / RFU TMEM200A (11744735_a_at) / Fold change /veh TMEM200A (11744735_a_at) / RFU CCDC152 (11751479_a_at) / Fold change /veh CCDC152 (11751479_a_at) / RFU FAM211A (11726209_a_at) / Fold change /veh FAM211A (11726209_a_at) / RFU RGS16 (11746705_a_at) / Fold change /veh RGS16 (11746705_a_at) / RFU VCAN (11755009_s_at) / Fold change /veh VCAN (11755009_s_at) / RFU RHOB (11743442_s_at) / Fold change /veh RHOB (11743442_s_at) / RFU RGS16 (11720943_a_at) / Fold change /veh RGS16 (11720943_a_at) / RFU RGS16 (11720944_at) / Fold change /veh RGS16 (11720944_at) / RFU, VPS4B / Fold change vs veh, VPS4B / RFU, CREB1 / Fold change vs veh, CREB1 / RFU, DNAJC13 / Fold change vs veh, DNAJC13 / RFU, GNAQ / Fold change vs veh, GNAQ / RFU, CDK5R1 / Fold change vs veh, CDK5R1 / RFU, ZRANB3 / Fold change vs veh, ZRANB3 / RFU, CUL4A / Fold change vs veh, CUL4A / RFU, CCNY / Fold change vs veh, CCNY / RFU, UFL1 / Fold change vs veh, UFL1 / RFU, COG3 / Fold change vs veh, COG3 / RFU, DIAPH2 / Fold change vs veh, DIAPH2 / RFU, SKA2 / Fold change vs veh, SKA2 / RFU, AFF3 / Fold change vs veh, AFF3 / RFU, LMF1 / Fold change vs veh, LMF1 / RFU, IPO11 / Fold change vs veh, IPO11 / RFU, DFFB / Fold change vs veh, DFFB / RFU, FOXP1 / Fold change vs veh, FOXP1 / RFU, CARD8 / Fold change vs veh, CARD8 / RFU, STRN3 / Fold change vs veh, STRN3 / RFU, ADK / Fold change vs veh, ADK / RFU, RASSF2 / Fold change vs veh, RASSF2 / RFU, WIPF1 / Fold change vs veh, WIPF1 / RFU, LARP1B / Fold change vs veh, LARP1B / RFU, RASA1 / Fold change vs veh, RASA1 / RFU, RB1 / Fold change vs veh, RB1 / RFU, PPFIA1 / Fold change vs veh, PPFIA1 / RFU, MAT2A / Fold change vs veh, MAT2A / RFU, CCT5 / Fold change vs veh, CCT5 / RFU, WDR92 / Fold change vs veh, WDR92 / RFU, CUX1 / Fold change vs veh, CUX1 / RFU, TTC7A / Fold change vs veh, TTC7A / RFU, TMEM135 / Fold change vs veh, TMEM135 / RFU, DEPTOR / Fold change vs veh, DEPTOR / RFU, CPM / Fold change vs veh, CPM / RFU, DNAJB6 / Fold change vs veh, DNAJB6 / RFU, CACNA2D3 / Fold change vs veh, CACNA2D3 / RFU, DTX4 / Fold change vs veh, DTX4 / RFU, TFCP2 / Fold change vs veh, TFCP2 / RFU, GMCL1 /// GMCL1P1 / Fold change vs veh, GMCL1 /// GMCL1P1 / RFU, AEBP2 / Fold change vs veh, AEBP2 / RFU, SNHG1 /// SNORD22 /// SNORD25 /// SNORD26 /// SNORD27 /// SNORD28 /// SNORD29 /// SNORD31 / Fold change vs veh, SNHG1 /// SNORD22 /// SNORD25 /// SNORD26 /// SNORD27 /// SNORD28 /// SNORD29 /// SNORD31 / Fold change (Aza/veh), C12orf56 (ProbeSet 11735607_a_at) / Fold change (ACY-1035/veh), C12orf56 (ProbeSet 11735607_a_at) / Fold change (Aza/veh), FGFR1OP (ProbeSet 11751329_s_at) / Fold change (ACY-1035/veh), FGFR1OP (ProbeSet 11751329_s_at) / Fold change (Aza/veh), VPS36 (ProbeSet 11739960_a_at) / Fold change (ACY-1035/veh), VPS36 (ProbeSet 11739960_a_at) / RFU SYPL1 (11715823_x_at) / Fold change /veh SYPL1 (11715823_x_at) / RFU IGFBP7 (11715501_s_at) / Fold change /veh IGFBP7 (11715501_s_at) / RFU REEP3 (11722064_at) / Fold change /veh REEP3 (11722064_at) / RFU IGLL1 (11728026_x_at) / Fold change /veh IGLL1 (11728026_x_at): dose or concentration left out as unconfirmed
Conditions: ProbeSet 11745428_a_at; LIST D

## Nc1ccc(-c2cccs2)cc1NC(=O)c1ccc2c(c1)cc(C1CC1)n2CCN1CCOCC1 [ACY-1035]
  RFU, DFFB: 104.10 RFU
